# Read-outs that look alike come from different tables or passages of the source.
# Tests used:
# MRSA (2658 RCMB) = test: MIC against MRSA (2658 RCMB), broth dilution; type: cell-based, Staphylococcus aureus; conditions: Staphylococcus aureus; Table 7; initial screening, MRSA (2658 RCMB); read-out: minimum inhibitory concentration (MIC)
# Procedure, shortened: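 Broth dilution in cation-adjusted Mueller-Hinton broth with an inoculum of about 5×10^5 CFU/mL (from a 0.5 McFarland suspension), using triplicate serial dilutions. MIC was the lowest concentration with no visible growth by visual inspection, reported as the mean of triplicates.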
# MRSA (USA300) = test: Time-kill assay; type: cell-based, Staphylococcus aureus
# Experimental: Aliquots (100 μL) were taken from each sample after 2, 4, 6, 8, 10, 12, and 24 hours, serially diluted in phosphate-buffered saline, and transferred to Trypticase soy agar (TSA) (Becton, Dickinson and Company, Sparks, Md., USA) plates. Plates were incubated at 37° C. for at least 16 hours before counting viable CFU/mL to determine the time required to reduce the bacterial cell count by 3-log10.
# S. aureus ATCC 6538 = test: MIC/MBC S. aureus strains (Table 8); type: cell-based; conditions: Staphylococcus aureus, ATCC6538
# Experimental: (§1) A bacterial solution equivalent to 0.5 McFarland standard was prepared and diluted in cation-adjusted Mueller-Hinton broth (CAMHB) to achieve a bacterial concentration of about 5×10^5 CFU/mL and seeded in 96-well plates. Enterococcus faecium was diluted in brain heart infusion broth. Enterococcus faecalis, Streptococcus pneumonia and Listeria monocytogenes were diluted in tryptone soya broth (TSB).
# S. aureus NRS107 = test: MIC/MBC S. aureus strains (Table 8); type: cell-based, Staphylococcus aureus; conditions: Staphylococcus aureus; Table 8; S. aureus NRS107
# Experimental: as §1
# [1] = tested on: Cephalosporin-resistant Streptococcus pneumoniae ATCC 51916; test: MIC/MBC Gram-positive pathogens (Table 9); type: cell-based; conditions: ATCC51916
# Experimental: as §1
# [2] = tested on: Enterococcus faecalis ATCC 51299 (VRE); test: MIC/MBC Gram-positive pathogens (Table 9); type: cell-based
# Experimental: as §1
# [3] = tested on: Methicillin-resistant Streptococcus pneumoniae ATCC 700677; test: MIC/MBC Gram-positive pathogens (Table 9); type: cell-based; conditions: ATCC700677
# Experimental: as §1
# MRSA USA400 (NRS123) = test: Multi-step resistance selection experiment; type: cell-based, Staphylococcus aureus; conditions: MRSA USA400, sub-lethal doses, 14 daily passages
# Experimental: To determine if MRSA would be capable of forming resistance to the compounds quickly, a multi-step resistance selection experiment was conducted, as described previously. The broth microdilution assay was utilized to determine the MIC of the tested compounds and rifampicin exposed to MRSA USA400 (NRS123) for 14 passages over a period of two weeks. Resistance was classified as a greater than four-fold increase in the initial MIC, as reported elsewhere.
# [4] = tested on: human colorectal (Caco-2) cell; test: In vitro cytotoxicity against Caco-2 cells (MTS); type: cell-based; conditions: at 32 μg/mL
# Experimental: Tested compounds were assayed (at concentrations of 16, 32, and 64 μg/mL) against a human colorectal (Caco-2) cell to determine the potential toxic effect to mammalian cells in vitro. Briefly, cells were cultured in Dulbecco's Modified Eagle Medium (DMEM) supplemented with 20% fetal bovine serum (FBS), non-essential amino acids (1×), and penicillin-streptomycin at 37° C. with CO2 (5%). Control cells received DMSO alone at a concentration equal to that in drug-treated cell samples. The cells were incubated with the compounds (in triplicate) in a 96-well plate at 37° C. with CO2 (5%) for two hours. The assay reagent MTS 3-(4,5-dimethylthiazol-2-yl)-5-(3-carboxymethoxyphenyl)-2-(4-sulfophenyl)-2H-tetrazolium) (Promega, Madison, Wis., USA) was subsequently added and the plate was incubated for four hours. Absorbance readings (at OD490) were taken using a kinetic microplate reader (Molecular Devices, Sunnyvale, Calif., USA). The quantity of viable cells after treatment with each compound was expressed as a percentage of the viability of DMSO-treated control cells (average of triplicate wells±standard deviation). The toxicity data was analyzed via a two-way ANOVA, with post hoc Sidak's multiple comparisons test (P<0.05), utilizing GraphPad Prism 6.0 (GraphPad Software, La Jolla, Calif.).
# [5] = In vivo PK in rats after single IV bolus injection; design: species or system Sprague-Dawley (SD) rats
# Experimental: In vivo Pharmacokinetics. Pharmacokinetic studies were performed in male naïve Sprague-Dawley (SD) rats (three animals) following Institutional Animal Care and Use Committee guidelines. An IV bolus of a 5 μM solution of compound 19 was directly administered via tail-vein injection. Blood samples were collected over a 12-hour period post dose into Vacutainer tubes containing EDTA-K2. Plasma was isolated, and the concentration of tested compounds in plasma was determined with LC/MS/MS after protein precipitation with acetonitrile. Two-compartmental pharmacokinetic analysis was performed on plasma concentration data in order to calculate pharmacokinetic parameters.
# [6] = tested on: methicillin-sensitive S. aureus (MSSA), MRSA and VRSA strains; conditions: literature (Moran, N. Engl. J. Med. 2006); cited from earlier work
# NRS119 (MRSA) = test: MIC/MBC clinical isolate panel (Table 3); type: cell-based, S. aureus; conditions: Staphylococcus aureus
# Experimental: (§2) Bacteria were cultured in cation-adjusted Mueller Hinton broth in a 96-well plate. Compounds, using triplicate samples, were added to the plate and serially diluted. […] Plates were visually inspected and the MIC was categorized as the concentration at which no visible growth of bacteria was observed. The average of triplicate MIC determinations is reported.
# as §1
# NRS123 (MRSA USA400) = test: MIC/MBC clinical isolate panel (Table 3); type: cell-based, S. aureus; conditions: Staphylococcus aureus
# Experimental: as §2, §1
# NRS382 (MRSA USA100) = test: MIC/MBC clinical isolate panel (Table 3); type: cell-based, S. aureus; conditions: Staphylococcus aureus
# Experimental: as §2, §1
# NRS383 (MRSA USA200) = test: MIC/MBC clinical isolate panel (Table 3); type: cell-based, S. aureus; conditions: Staphylococcus aureus
# Experimental: as §2, §1
# NRS384 (MRSA USA300) = test: MIC/MBC clinical isolate panel (Table 3); type: cell-based, S. aureus; conditions: Staphylococcus aureus
# Experimental: as §2, §1
# NRS72 (MSSA) = test: MIC/MBC clinical isolate panel (Table 3); type: cell-based, S. aureus; conditions: Staphylococcus aureus
# Experimental: as §2, §1
# VRSA10 = test: MIC/MBC clinical isolate panel (Table 3); type: cell-based, S. aureus; conditions: Staphylococcus aureus
# Experimental: as §2, with “MRSA clinical isolates, and vancomycin-resistant Staphylococcus aureus (VRSA) strain were obtained through the Network of Antimicrobial Resistance in Staphylococcus aureus (NARSA) program. In addition, vancomycin-resistant Enterococcus faecium (VRE) strain was obtained from the ATCC. Bacteria” for “Bacteria”
# (§3) The minimum inhibitory concentration (MIC) of tested compounds and control antibiotics were determined using the broth microdilution method in accordance with the recommendations contained in the Clinical and Laboratory Standards Institute guidelines, against methicillin-sensitive (ATCC 6538 and NRS107), methicillin-resistant (MRSA), and vancomycin-resistant (VRSA) Staphylococcus aureus, Staphylococcus epidermidis, Enterococcus faecalis, E. faecium, Listeria monocytogenes, and Streptococcus pneumoniae clinical isolates. A bacterial solution equivalent to 0.5 McFarland standard was prepared and diluted in cation-adjusted Mueller-Hinton broth (CAMHB) to achieve a bacterial concentration of about 5×10^5 CFU/mL and seeded in 96-well plates. Enterococcus faecium was diluted in brain heart infusion broth. Enterococcus faecalis, Streptococcus pneumonia and Listeria monocytogenes were diluted in tryptone soya broth (TSB). Compounds and control drugs were added in the first row of 96-well plates and serially diluted (to achieve a concentration gradient ranging from 128 to 1 μg/mL). Plates were then incubated aerobically at 37° C. for at least 18 hours. The minimum bactericidal concentration (MBC) of the active compounds was tested by plating 5 μL from wells with no growth onto Tryptic soy agar (TSA) plates.
# VRE ATCC 700221 = test: MIC/MBC clinical isolate panel (Table 3); type: cell-based, Enterococcus faecium; conditions: Enterococcus
# Experimental: as §2, with “MRSA clinical isolates, and vancomycin-resistant Staphylococcus aureus (VRSA) strain were obtained through the Network of Antimicrobial Resistance in Staphylococcus aureus (NARSA) program. In addition, vancomycin-resistant Enterococcus faecium (VRE) strain was obtained from the ATCC. Bacteria” for “Bacteria”
# as §3
# VRS10 (VRSA) = test: MIC/MBC S. aureus strains (Table 8); type: cell-based; conditions: Staphylococcus aureus, VRSA
# Experimental: as §3
# VRS12 (VRSA) = test: MIC/MBC S. aureus strains (Table 8); type: cell-based; conditions: Staphylococcus aureus, VRSA
# Experimental: as §3
# [7] = tested on: Enterococcus faecium ATCC 700221 (VRE); test: MIC/MBC Gram-positive pathogens (Table 9); type: cell-based; conditions: Enterococcus faecium
# Experimental: as §3
# [8] = tested on: methicillin-sensitive S. aureus (MSSA), MRSA and VRSA strains; test: MIC/MBC summary over the S. aureus strain panel; type: cell-based
# Experimental: as §3
# [9] = tested on: MRSA USA300 (NRS384) biofilm; test: MRSA biofilm eradication, microtiter dish biofilm formation assay; type: cell-based, Staphylococcus aureus
# Experimental: The bacterial suspension was removed and compounds were added at concentrations ranging from 128 to 1 μg/mL in TSB. Compounds were incubated with the biofilm at 37° C. for 24 hours. In order to quantify the biofilm mass, the bacterial suspension was removed and wells were washed with phosphate-buffered saline to remove planktonic bacteria. An aliquot of 0.1% crystal violet was added to each well to stain biofilm mass. After 30 minutes, wells were washed with sterile water and dried. Wells were de-stained using 100% ethanol prior to quantifying biofilm mass using a spectrophotometer (OD595). Data are presented as percent eradication of MRSA USA300 biofilm for each test agent relative to the negative (DMSO) control wells. Data were analyzed using two-way ANOVA with post-hoc Sidak's test for multiple comparisons (P<0.05).
compound,measurement,setting,value
"Cc1nc(-c2ccc(C(C)(C)C)cc2)sc1-c1ccnc(NCCN)n1 [Compound 54, N-(4-(2-(4-(tert-Butyl)phenyl)-4-methylthiazol-5-yl)pyrimidin-2-yl)ethane-1,2-diamine]",MIC,MRSA (2658 RCMB),1.17 µg/mL
same,"bactericidal / bacteriostatic behaviour in time-kill assay, in words","MRSA (USA300); MRSA, 3.0×MIC",rapid bactericidal activity
same,time to completely eradicate the MRSA inoculum,"MRSA (USA300); t-butyl series, 3.0×MIC",within two to four hours
same,MIC,S. aureus ATCC 6538,4 µg/mL
same,MIC,S. aureus NRS107,4 µg/mL
same,MBC,[1],16 µg/mL
same,MIC,"[2]; Table 9, Enterococcus faecalis ATCC 51299 (VRE)",16 µg/mL
same,MBC,"[2]; Table 9, Enterococcus faecalis ATCC 51299 (VRE), read-out: MBC",16 µg/mL
same,MBC,[3],16 µg/mL
same,MIC,[3],2 µg/mL
same,increase in MIC by/after the ninth passage,MRSA USA400 (NRS123),one-fold
same,"tolerability to human colorectal cells, in words",[4],highly tolerable
same,AUC,[5],3980 ng·h/mL
same,CL (clearance),[5],1.26 L/h
same,Vdss (volume of distribution at the steady state),[5],3.39 L
same,"Vβ (volume of distribution in 2nd compartment, peripheral tissues)",[5],16.36 L
same,t1/2 (half-life),[5],9.03 h
CCO/N=C(\C(=O)N[C@@H]1C(=O)N2C(C(=O)[O-])=C(Sc3nc(-c4cc[n+](C)cc4)cs3)CS[C@H]12)c1nsc(N)n1 [cefatroline],"MIC range against MRSA and VRSA, reported",[6],0.5 to 4 µg/mL
"CN[C@H](CC(C)C)C(=O)N[C@H]1C(=O)N[C@@H](CC(N)=O)C(=O)N[C@H]2C(=O)N[C@H]3C(=O)N[C@H](C(=O)N[C@H](C(=O)O)c4cc(O)cc(O)c4-c4cc3ccc4O)[C@H](O)c3ccc(c(Cl)c3)Oc3cc2cc(c3O[C@@H]2O[C@H](CO)[C@@H](O)[C@H](O)[C@H]2O[C@H]2C[C@](C)(N)[C@H](O)[C@H](C)O2)Oc2ccc(cc2Cl)[C@H]1O [Vancomycin, vancomycin, reference compound]",MIC,NRS119 (MRSA),1 µg/mL
same,MIC,NRS123 (MRSA USA400),1 µg/mL
same,MIC,NRS382 (MRSA USA100),1 µg/mL
same,MIC,NRS383 (MRSA USA200),1 µg/mL
same,MIC,NRS384 (MRSA USA300),1 µg/mL
same,MIC,NRS72 (MSSA),2 µg/mL
same,MBC,VRSA10,> 64 µg/mL
same,MIC,VRSA10,> 64 µg/mL
same,MBC,VRE ATCC 700221,> 64 µg/mL
same,MIC,VRE ATCC 700221,> 64 µg/mL
same,time to three-log10 reduction in the initial inoculum of MRSA,MRSA (USA300); 3.0×MIC,24 hours
same,time required to reduce the MRSA inoculum to zero colony forming units,"MRSA (USA300); MRSA US300, 3.0×MIC",24 h
same,MBC,VRS10 (VRSA),> 64 µg/mL
same,MIC,VRS10 (VRSA),> 64 µg/mL
same,MBC,VRS12 (VRSA),> 64 µg/mL
same,MIC,VRS12 (VRSA),> 64 µg/mL
same,MBC,[7],> 64 µg/mL
same,MIC,[7],> 64 µg/mL
same,MBC,[2]; Enterococcus faecalis,64 µg/mL
same,MIC range against MRSA,[8],1 to 2 µg/mL
same,MRSA biofilm mass disrupted,[9]; at 1×MIC,3%
same,reduction of MRSA biofilm mass,[9]; at 32×MIC,34%

# — patent US10414759B2, “Phenylthiazoles and uses thereof” (Purdue Research Foundation, priority 2017, dated 2019)
